Laboratory results reported in patent publication US20120045501A1, “CONNEXIN ENHANCES CHEMOTHERAPY-INCLUDED APOPTOSIS IN HUMAN CANCER CELLS INHIBITING TUMOR CELL PROLIFERATION” (Northwest Hospital, priority 2001, published 2012).
Values joined by “and” are separate entries in the source; they are usually repeats but may differ in a detail not shown here. Equal values may be shown once.

Experiments:
T98GN28 cells = assay: MTT cell viability assay; type: cell-based; details: Homo sapiens, 144 h, day 6 after treatment, T98GN28 (control-transfected)
Procedure: (§1) In vitro viability was determined by the 3-(4,5-dimethylthiazol-2yl)-2,5-diphenyltetrazolium bromide (MTT) colorimetric assay as described in (Huang et al., Cancer Res. 55:5054-5062 (1995)). Cells (1×10^3) were plated in triplicate in 96 well microplates overnight and treated with 5 different concentrations of VP16, Tax and DOX, respectively. […] Absorbance values at 570 nm were plotted as a measure of the relative number of cells. […] Both methods gave the identical results.
(§2) Values at OD 570 reflect the relative number of viable cells.

T98Gcx43-220 cells = assay: MTT cell viability assay; type: cell-based; details: Homo sapiens, 144 h, day 6 after treatment, T98Gcx43-220 (cx43-transfected)
Procedure: as §1, §2

U251N2 cells = assay: MTT cell viability assay; type: cell-based; details: Homo sapiens, 144 h, day 6 after treatment, U251N2 (control-transfected)
Procedure: as §1, §2

U251N23 cells [1] = assay: MTT cell viability assay; type: cell-based; details: Homo sapiens, 144 h, day 6 after treatment, U251N23 (control-transfected)
Procedure: as §1, §2

U251cx43-217 cells [2] = assay: MTT cell viability assay; type: cell-based; details: Homo sapiens, 144 h, day 6 after treatment, U251cx43-217 (cx43-transfected)
Procedure: as §1, §2

U251N23 cells [3] = assay: Clonogenicity (cell survival) assay; type: cell-based, human
Procedure: (§3) The surviving cell fraction was determined by clonogenicity assay as previously described (Huang et al., J. Cell Biol. 133:211-220 (1996)). Cells were seeded at a density of 500 cells per 60 mm plate and incubated overnight and then treated with drugs; culture was then continued for 3 weeks. Clones were fixed in 4% formaldehyde-PBS and stained with Giemsa solution. Colonies containing more than 50 cells were counted and the fraction of surviving cells was calculated. The results represented the average of three separate experiments.
as §2

U251cx43-216 cells [4] = assay: Clonogenicity (cell survival) assay; type: cell-based, human
Procedure: as §3, §2

U251N23 cells [5] = assay: Apoptosis, Hoechst dye stain; type: cell-based, human; details: U251N23, 1 μM VP16, D4
Procedure: The assay was performed as we previously described (Huang et al., Cell Death Differ. 5:96-106 (1998)). Briefly, cells were fixed in Carnoy's solution (methanol:glacial […]; 3:1) and stained with 5 μg/ml of bisbenzimide trihydrochloride (Hoechst 33258) for 20 min. The morphology of nuclei was then observed with a Zeiss (Thornwood, N.Y.) photomicroscope II. At least 500 nuclei in each cell line were counted. Experiments were repeated four times.
(§4) It was next determined whether the enhanced sensitivity to chemotherapeutic agents induced by over-expression of cx43 was associated with the increase of drug-induced apoptosis. Cells collected at various time points post-treatment with 1 μM VP16 were used for apoptosis assays. First, nuclear condensation, chromatin fragmentation and formation of apoptotic bodies were detected by Hoechst 33258 dye staining upon treatment with VP16. […] The results were further confirmed by both 1) TUNEL assay, which detects double- as well as single-stranded DNA breaks during apoptosis by labeling the free 3′-OH termini in an enzymatic reaction (terminal deoxynucleotidyl transferase), and annexin V assay, which detects the exposed phosphotidylserine during apoptosis.

U251N23 cells [6] = assay: Apoptosis, TUNEL assay; type: cell-based, human; details: U251N23, 1 μM VP16, D2
Procedure: (§5) Cells (1 to 3×10^5) were seeded onto glass slides in 8-well plates overnight, and then treated with VP16 for 48 hours. Apoptotic cells were then analyzed with a TUNEL-based in situ cell death detection kit (Boehringer-Mannheim, Mannheim, Germany). Fluorescent cells were observed under a fluorescence microscope and viewed as positive cells. The experiment was repeated twice.
as §4

U251cx43-216 cells [7] = assay: Apoptosis, TUNEL assay; type: cell-based, human; details: U251cx43-216, 1 μM VP16, D2
Procedure: as §5, §4

U251N23 cells [8] = assay: Apoptosis, annexin V assay; type: cell-based, human
Procedure: (§6) Cells, treated or not VP16, were analyzed with the TACS Annexin V-FITC kit (Trevigen, Gaithersburg, Md.) according to manufacturer's instructions. Apoptosis was detected by the appearance of patches of fluorescence on the cell surface.
as §4

U251cx43-216 cells [9] = assay: Apoptosis, annexin V assay; type: cell-based, human
Procedure: as §6, §4

U251N23 cells [10] = assay: Cell-cycle distribution by FACScan; type: cell-based, human; details: U251N23, VP16 1 × 10^−6 M
Procedure: (§7) Cell-cycle distribution was determined by flow cytometry as described previously (Huang et al., Int. J. Cancer 77:880-886 (1998)). Briefly, cells were seeded in 100 mm plates (5×10^5 per plate), incubated for 24 hours, and then treated with VP16 or vehicle. At days 1 and 2 of treatment, cells were collected, fixed in 70% ethanol and stained with propidium iodine. The DNA content of cells was then analyzed in a fluorescence cell sorter (FACSCalibur, Becton Dickinson, Mountain View, Calif.).
(§8) The possibility was assessed by treatment of the cells with VP16 for 24 and 48 hours, and cell-cycle distribution was then determined by FACScan. […] Although there was a slight decrease of S phase in cx43-transfected cells compared with control transfected cells at 24 hours after VP16 treatment, it was not statistically significant.

U251cx43-216 cells [11] = assay: Cell-cycle distribution by FACScan; type: cell-based, human; details: U251cx43-216, VP16 1 × 10^−6 M
Procedure: as §7, §8

U251cx43-217 cells [12] = assay: Cell-cycle distribution by FACScan; type: cell-based, human; details: U251cx43-217, VP16 1 × 10^−6 M
Procedure: as §7, §8

U251cx43-216 cells [13] = assay: MTT cell viability assay

COc1cc([C@@H]2c3cc4c(cc3[C@@H](O[C@@H]3O[C@@H]5CO[C@@H](C)O[C@H]5[C@H](O)[C@H]3O)[C@H]3COC(=O)[C@H]23)OCO4)cc(OC)c1O [VP16, Etoposide]
IC50 (T98GN28 cells): 1.34 µM | IC50 (T98Gcx43-220 cells): 0.76 µM | IC50 (U251N2 cells): 0.8 µM | IC50 (U251N23 cells [1]): 0.86 µM | IC50 (U251cx43-217 cells [2]): 0.33 µM | Colony formation (colonies counted) (U251N23 cells [3]; U251N23, 1 × 10^−7, 3 weeks): 36 +/− 1 | Colony formation (colonies counted) (U251N23 cells [3]; U251N23, 4 × 10^−6, 3 weeks): 9 +/− 1 | Colony formation (colonies counted) (U251N23 cells [3]; U251N23, 4 × 10^−7, 3 weeks): 129 +/− 16 | Colony formation (colonies counted) (U251cx43-216 cells [4]; U251cx43-216, 1 × 10^−7, 3 weeks): 3 +/− 1 | Colony formation (colonies counted) (U251cx43-216 cells [4]; U251cx43-216, 4 × 10^−6, 3 weeks): 2 +/− 1 | Colony formation (colonies counted) (U251cx43-216 cells [4]; U251cx43-216, 4 × 10^−7, 3 weeks): 44 +/− 5 | Percentage of apoptotic cells, Hoechst stain (U251N23 cells [5]): 8.8% and 8.8 +/− 2.4% | Percentage of apoptotic cells, TUNNEL assay (U251N23 cells [6]): 1.6 +/− 2.3% | Percentage of apoptotic cells, TUNNEL assay (U251cx43-216 cells [7]): 13.3 +/− 4.5% | Percentage of apoptotic cells, annexin stain (U251N23 cells [8]; U251N23, 1 μM VP16, D2): 5.5 +/− 0.7% | Percentage of apoptotic cells, annexin stain (U251N23 cells [8]; U251N23, 1 μM VP16, D4): 11.5 +/− 2.1% | Percentage of apoptotic cells, annexin stain (U251cx43-216 cells [9]; U251cx43-216, 1 μM VP16, D2): 24.5 +/− 0.7% | Percentage of apoptotic cells, annexin stain (U251cx43-216 cells [9]; U251cx43-216, 1 μM VP16, D4): 42.0 +/− 5.6% | Cell cycle distribution, G1 phase (U251N23 cells [10]; day 1): 7.37% | Cell cycle distribution, G2 phase (U251N23 cells [10]; day 1): 81.49% | Cell cycle distribution, S phase (U251N23 cells [10]; day 1): 11.14% | Cell cycle distribution, G1 phase (U251N23 cells [10]; day 2): 5.78% | Cell cycle distribution, G2 phase (U251N23 cells [10]; day 2): 94.22% | Cell cycle distribution, S phase (U251N23 cells [10]; day 2): 0% | Cell cycle distribution, G1 phase (U251cx43-216 cells [11]; day 1): 10.95% | Cell cycle distribution, G2 phase (U251cx43-216 cells [11]; day 1): 80.57% | Cell cycle distribution, S phase (U251cx43-216 cells [11]; day 1): 8.48% | Cell cycle distribution, G1 phase (U251cx43-216 cells [11]; day 2): 8.44% | Cell cycle distribution, G2 phase (U251cx43-216 cells [11]; day 2): 90.81% | Cell cycle distribution, S phase (U251cx43-216 cells [11]; day 2): 0.75% | Cell cycle distribution, G1 phase (U251cx43-217 cells [12]; day 1): 12.05% | Cell cycle distribution, G2 phase (U251cx43-217 cells [12]; day 1): 77.84% | Cell cycle distribution, S phase (U251cx43-217 cells [12]; day 1): 10.11% | Cell cycle distribution, G1 phase (U251cx43-217 cells [12]; day 2): 11.39% | Cell cycle distribution, G2 phase (U251cx43-217 cells [12]; day 2): 88.61% | Cell cycle distribution, S phase (U251cx43-217 cells [12]; day 2): 0% | IC50 (U251cx43-216 cells [13]; Homo sapiens, 144 h): 0.39 µM | level of toxicity (measured as IC50) in U251cx43-216 relative to U251N23 (U251cx43-216 cells [13]; MTT assay, higher in cx43-transfected cells): about 2 fold
